For four molecules, microsomal CLint and fraction unbound results are on record in patent US12595269B2, “Morpholine-like monoamine releasers” (Solvonis Therapeutics Ireland Holdings Limited, priority 2022, dated 2026).

Series [1] is described as follows: In vitro intrinsic clearance in rat liver microsomes. In kind it is in vitro ADME. Particulars: pH 7.4, read-out: Intrinsic clearance (μL/min/mg protein) rat. How it is done:
Methods and Procedure: The general procedure involves incubating test compounds with liver microsomes and subsequently detecting the compounds to determine intrinsic clearance. Clearance was estimated from the rate of depletion k (min−1), the volume of the incubation V (mL), and the amount of microsomal proteins in the incubation M (mg). Intrinsic clearance is defined by the following equation: Clint k*V/M.
Values for CLint are expressed as μL/min/mg protein. Verapamil and dextromethorphan were used as positive controls for CYP3A4 and CYP2D6 isoforms, respectively, to confirm metabolic activity.
Positive control and compounds for testing were dissolved in an appropriate solvent to obtain a 10 mM stock solution, which was diluted to achieve a final working solution, as detailed in the above table. Stock solutions were usually prepared at 10 mM DMSO, whereas working solutions were made by adding 5 μL 10 mM DMSO+995 μL MeOH. However, this concentration can be varied, e.g., when the test item is not soluble in the selected solvent.
Prior to experimentation, frozen liver microsomes were thawed in a water bath at 37° C. and kept on ice until use. The microsomes were then diluted with 50 mM potassium phosphate buffer pH 7.4 to a protein concentration of 0.56 mg/mL. To prepare test and control items in final incubation conditions, 5 μL of test compound and positive control working solutions were added to 445 μL of microsomes incubation mixture at 0.56 mg/mL and 50 μL of regenerating system.
As it relates to the automated incubation procedure for microsomes incubation, the following procedure was followed: • 1. 150 μL of quenching solution (ACN containing an appropriate Internal Standard, i.e. Rolipram and Diclofenac for positive and negative ion mode, respectively) was manually dispensed or dispensed by using the Hamilton system in each well of 96 deep well 1 mL plates. • 2. 800-1000 μL-aliquots of NADPH regenerating system were pre-warmed at 37° C. for 5 minutes. • 3. 5 μL of 50 μM test items and control were added to 445 μL of the 0.56 mg/mL microsomes solution, and the incubation mixture was pre-warmed in a 96 deep well 2 mL plate (incubation plate) at 37° C. for 5 minutes. • 4. […] Metabolic stability was calculated from the ratio of peak area of the remaining test or control item with internal standard versus time. • 9. […] The integrated peak areas of the test and control items at the selected time points were divided by the respective peak areas of the IS, and the percent of parent remaining was calculated by normalizing the peak area ratio of parent to IS at 0 min. Observed rate constant (kobs) for parent degradation was calculated by determining the slope of the line of the graph of the natural log of percentage parent remaining versus time of incubation. […]

Series [2] is described as follows: Plasma protein binding by equilibrium dialysis, rat plasma. Format: in vitro ADME, Sprague Dawley (SD) rats. Conditions: male, Sprague Dawley, pH 7.4. How it is done:
Methods and Procedure: This study was performed in agreement with the previously described procedures to assure data integrity and adherence to GLP standards. Plasma protein binding and blood tissue binding of test items (0.5 μM) was determined using biological samples from male Sprague Dawley (SD) rats and humans. […] Dexamethasone was used as a control for lung tissue binding. Various biological samples were spiked with test compounds according to the methods that follow.
Preparation of plasma or blood samples: An appropriate amount of test compound was dissolved in DMSO to yield a 10 mM solution. Further dilutions, to obtain 50 μM working solutions (WS), were then prepared using 50% acetonitrile in Milli-Q water. These 100×WS were used to spike plasma or blood to obtain a final concentration of 0.5 μM. From this initial spiking solution, control samples (n=3), referred to as T=0, were immediately extracted and used to calculate the recovery of the test item.
An equilibrium dialysis method was performed to determine protein binding in the various biological samples described herein. Materials were prepared and methods were in accordance with the following procedures. […]
Dialysis buffer was prepared by dissolving Na2HPO4 8.69 g, KH2PO4 1.90 g, and NaCl 4.11 g in 1 L of MilliQ water, and adjusting the pH to 7.4 with H3PO4. […] In order to control the integrity of the membrane after the dialysis process, the presence of protein was assessed in the buffer compartment. […]
Samples were analyzed in a LC-MS/MS system using an analytical method to monitor the compound to internal standard peak area ratios as representative of the compound concentrations. Alternatively, samples were analyzed by RapidFire.
Protein binding in plasma, blood, brain, and lung tissue samples were determined with the following formula: Afu=Buffer/x, wherein “x” may be plasma, blood, brain, or lung, and “Afu” is the apparent fraction unbound, and the other variables refer to the analyte/internal standard ratio determined in their specific compartment (buffer, plasma, blood, brain homogenate, and lung homogenate); […]

Where only a bound is given, the exact number is not on record here.

The term fraction unbound denotes the share of the substance not bound to proteins or other matrix. Low values mean extensive binding, high ones weak binding.

Turning to `Clc1ccc([C@@]23CN[C@@H](CO2)C3)cc1Cl` (single isomer, unassigned) [518A], the microsomal CLint at 0.5 µM in series [1] was found to be 268 µL/min/mg. Moreover, the fraction unbound at 5 h, 0.5 µM in series [2] was 0.106.

Take `Clc1ccc(C23CNC(CO2)C3)cc1Cl` (stereo not shown) [522A, 1-(3,4-dichlorophenyl)-2-oxa-5-azabicyclo[2.2.1]heptane]: in series [1], the microsomal CLint at 0.5 µM was 83 µL/min/mg. The fraction unbound at 5 h, 0.5 µM in series [2] worked out at 0.12. Turning to `Clc1ccc([C@]23CN[C@H](CO2)C3)cc1Cl` (single isomer, unassigned) [516A], the microsomal CLint at 0.5 µM in series [1] was 167 µL/min/mg. As for `CNC(C)Cc1ccc2c(c1)OCO2` (stereo not shown) [MDMA, reference compound], the microsomal CLint at 0.5 µM in series [1] amounted to 171 µL/min/mg. The fraction unbound at 5 h, 0.5 µM in series [2] is above 0.5.
